# Reference: patent publication EP4772510A2, “BENZAZEPINONE COMPOUND AND USE THEREOF” (HANGZHOU BIO-SINCERITY PHARMA-TECHCO., LTD., priority 2023, dated 2025)
# Assays:
# in vivo = settings: male, SD, rat, plasma
# Description: (§1) Example 59: Pharmacokinetic Experiment of Compounds in SD Rats
# (§2) SD rats, male, 6-8 weeks old, purchased from Zhejiang Vital River Laboratory Animal Technology Co., Ltd., production license No.: SCXK (Zhejiang) 2019-0001. The animals were maintained in an SPF-grade animal room of Hangzhou Bio-Sincerity Pharma-Tech Co., Ltd., with the experimental animal use license No. of SYXK (Zhejiang) 2021-0014. The animals were used after being acclimatized for at least one week. All experiments were performed in strict compliance with the regulations on experimental animals.
# (§3) Four hours after administration, food was provided.
# (§4) After administration to SD rats, about 300 µL of blood was collected from the orbit of each animal and anticoagulated with EDTA-Na2. […] The collected blood was placed in an ice bath and centrifuged within 1 h to separate plasma (centrifugation conditions: 2000× g, 10 min, 4 °C). 50 µL of plasma sample was taken, subjected to protein precipitation, and then assayed by UHPLC-MS. The assay data were analyzed and processed using WinNonLin8.1 pharmacokinetic software to obtain pharmacokinetic parameters.
# [1] = Pharmacokinetic experiment in SD rats; settings: p.o, 5 mg/kg vs i.v, 0.5 mg/kg
# Description: as §1, §2, §3, §4
# U937 cells = test: Inhibition of TNF-α-induced necroptosis of U937 cells (CCK-8 assay); assay type: cell-based, human; settings: Homo sapiens, U-937, TNF-α 20 ng/mL + BV6 2 µM + Z-VAD-FMK 20 µM, 18 h
# How it was run: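 U937 cells (3.6 × 10^4/well) rested 6 h, then exposed to TNF-α 20 ng/mL, BV6 2 µM and Z-VAD-FMK 20 µM plus compound (8-point 3-fold series, 1000–0.46 nM, duplicate) for 18 h. Viability by CCK-8, absorbance at 450 nm after 2-4 h at 37 °C; EC50 calculated.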
# HT-29 cells = test: Inhibition of TNF-α-induced necroptosis of HT-29 cells (SRB method); assay type: cell-based, human; settings: Homo sapiens, HT-29, TNF-α 20 ng/mL + BV6 2 µM + Z-VAD-FMK 20 µM, 18 h
# How it was run: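 HT-29 cells (3 × 10^4/well, 24 h) were treated 18 h with compound (8 three-fold dilutions, 1000.00-0.46 nM, duplicate) plus TNF-α 20 ng/mL, BV6 2 µM and Z-VAD-FMK 20 µM final, at 37 °C. Viability was read by SRB absorbance; EC50 values were fitted.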
Compound,EC50 (U937 cells) [nM],EC50 (HT-29 cells) [nM],also measured
"O=C(NC1CCc2cccc3c2N(CC3)C1=O)c1ncn(Cc2c(F)cccc2F)n1 (stereo not drawn) [Example 13 in CN20191051 8248X, 1-(2,6-difluorobenzyl)-N-(4-oxo-1,2,3,4,6,7-hexahydroazepino[3,2,1-hi]indol-3-yl)-1H-1,2,4-triazole-3-carboxamide, reference compound]",,,"AUC(0-t) (in vivo; intravenous, 0.5 mg/kg): 271 ± 38 ng·h/mL; Cmax (in vivo; intravenous, 0.5 mg/kg): 983 ± 106 ng/mL; clearance (in vivo; intravenous, 0.5 mg/kg): 31 ± 4.47 mL/min/kg; half-life (in vivo; intravenous, 0.5 mg/kg): 26.4 ± 15.6 min; AUC(0-t) (in vivo; oral, 5 mg/kg): 340 ± 174 ng·h/mL; CL/F (in vivo; oral, 5 mg/kg): 8.37 ± 4.01 mL/min/kg; Cmax (in vivo; oral, 5 mg/kg): 467 ± 215 ng/mL; half-life (in vivo; oral, 5 mg/kg): 20.4 ± 8.4 min; Fabs (%) [1]: 12.55 ± 6.41%"
"O=C(NC1CCc2cc(C#Cc3cnn(C(F)F)c3)cc3c2N(CC3)C1=O)c1ncn(Cc2ccc(F)c(F)c2)n1 (stereo not drawn) [III-23, 1-(3,4-difluorobenzyl)-N-(9-((1-(difluoromethyl)-1H-pyrazol-4-yl)ethynyl)-4-oxo-1,2,3,4,6,7-hexahydroazepino[3,2,1-hi]indol-3-yl)-1H-1,2,4-triazole-3-carboxamide]",10 to 100,10 to 100,
"O=C(NC1CCc2cc(C#Cc3cnn(C(F)F)c3)cc3c2N(CC3)C1=O)c1ncn(Cc2ccc(F)cc2)n1 (stereo not drawn) [III-24, N-(9-((1-(difluoromethyl)-1H-pyrazol-4-yl)ethynyl)-4-oxo-1,2,3,4,6,7-hexahydroazepino[3,2,1-hi]indol-3-yl)-1-(4-fluorobenzyl)-1H-1,2,4-triazole-3-carboxamide]",5 to 10,10 to 100,
"O=C(NC1CCc2cc(C#Cc3cnn4c3COCC4)cc3c2N(CC3)C1=O)c1ncn(Cc2c(F)cccc2F)n1 (stereo not drawn) [III-27, 1-(2,6-difluorobenzyl)-N-(9-((6,7-dihydro-4H-pyrazolo[5,1-c] [1,4]oxazin-3-yl)ethynyl)-4-oxo-1,2,3,4,6,7-hexahydroazepino[3,2,1-hi]indol-3-yl)-1H-1,2,4-triazole-3-carboxamide]",< 5,< 5,
"C=Cn1ncc(C#Cc2cc3c4c(c2)CCN4C(=O)C(NC(=O)c2ncn(Cc4c(F)cccc4F)n2)CC3)c1C=O (stereo not drawn) [III-28, 1-(2,6-difluorobenzyl)-N-(9-((5-formyl-1-vinyl-1H-pyrazol-4-yl)ethynyl)-4-oxo-1,2,3,4,6,7-hexahydroazepino[3,2,1-hi]indol-3-yl)-1H-1,2,4-triazole-3-carboxamide]",< 5,< 5,
"O=C(NC1CCc2cc(C#Cc3cnn(C4COC4)c3)cc3c2N(CC3)C1=O)c1ncn(Cc2c(F)cccc2F)n1 (stereo not drawn) [III-29, 1-(2,6-difluorobenzyl)-N-(9-((1-(oxetan-3-yl)-1H-pyrazol-4-yl)ethynyl)-4-oxo-1,2,3,4,6,7-hexahydroazepino[3,2,1-hi]indol-3-yl)-1H-1,2,4-triazole-3-carboxamide]",< 5,< 5,
"O=C(NC1CCc2cc(C#Cc3cnn(C4CCC4)c3)cc3c2N(CC3)C1=O)c1ncn(Cc2c(F)cccc2F)n1 (stereo not drawn) [III-30, N-(9-((1-cyclobutyl-1H-pyrazol-4-yl)ethynyl)-4-oxo-1,2,3,4,6,7-hexahydroazepino[3,2,1-hi]indol-3-yl)-1-(2,6-difluorobenzyl)-1H-1,2,4-triazole-3-carboxamide]",< 5,< 5,
"Cn1cc(C#Cc2cc3c4c(c2)CCN4C(=O)C(NC(=O)c2ncn(Cc4ccccn4)n2)CC3)cn1 (stereo not drawn) [III-31, N-(9-((1-methyl-1H-pyrazol-4-yl)ethynyl)-4-oxo-1,2,3,4,6,7-hexahydroazepino[3,2,1-hi]indol-3-yl)-1-(pyridin-2-ylmethyl)-1H-1,2,4-triazole-3-carboxamide]",5 to 10,< 5,
"Cn1cc(C#Cc2cc3c4c(c2)CCN4C(=O)C(NC(=O)c2ncn(Cc4ccccc4)n2)CC3)cn1 (stereo not drawn) [III-32, 1-benzyl-N-(9-((1-methyl-1H-pyrazol-4-yl)ethynyl)-4-oxo-1,2,3,4,6,7-hexahydroazepino[3,2,1-hi]indol-3-yl)-1H-1,2,4-triazole-3-carboxamide]",< 5,< 5,
"Cn1cc(C#Cc2cc3c4c(c2)CCN4C(=O)C(NC(=O)c2ccn(Cc4c(F)cccc4F)n2)CC3)cn1 (stereo not drawn) [XIII-1, 1-(2,6-difluorobenzyl)-N-(9-((1-methyl-1H-pyrazol-4-yl)ethynyl)-4-oxo-1,2,3,4,6,7-hexahydroazepino[3,2,1-hi]indol-3-yl)-1H-pyrazole-3-carboxamide]",10 to 100,10 to 100,
